Consider 1 compound from patent US20210100786A1, “Pharmaceutical Formulations” (CIPLA LIMITED, priority 2018, published 2021).

Molecules are shown by their SMILES.

Series [1] deals with Caco-2 cells. The note with it: cited from earlier work.
The subject of series [2] is Caco-2 cells.

With `COc1nc2ccc(Br)cc2cc1[C@@H](c1ccccc1)[C@@](O)(CCN(C)C)c1cccc2ccccc12` [Bedaquiline], in series [1], the P-gp substrate status entry is given as “known P-gp substrate”. Also, in series [2], the absorption entry is listed as “increased” and the “efflux ratio (Papp B-A/Papp A-B)” value was “decreasing the efflux ratio”.
